Key:
Conditions in all cases: 72 h
[1] = test system: Caco-2; experiment: cell viability relative to DMSO; higher = less toxic
[2] = test system: Calu-3; experiment: as above
[3] = test system: HepG2; experiment: as above
[4] = test system: U2OS; experiment: as above
[5] = test system: Vero E6; experiment: as above
[6] = test system: Caco-2; experiment: relative viability EC50 (midpoint between 100% and the lowest measured viability); higher = less toxic
[7] = test system: Calu-3; experiment: as above
[8] = test system: U2OS; experiment: as above
[9] = test system: Vero E6; experiment: as above
[10] = test system: Caco-2; experiment: drug sensitivity score (DSS) for viability; higher = more toxic; extreme values may be limits of the assay
[11] = test system: Calu-3; experiment: as above
[12] = test system: HepG2; experiment: as above
[13] = test system: U2OS; experiment: as above
[14] = test system: Vero E6; experiment: as above
[15] = test system: HepG2; experiment: relative viability EC50 (midpoint between 100% and the lowest measured viability); higher = less toxic

| SMILES | cell viability ([1]; 1 nM) [%] | cell viability ([1]; 10 nM) [%] | cell viability ([1]; 100 nM) [%] | cell viability ([1]; 1000 nM) [%] | cell viability ([1]; 10000 nM) [%] | cell viability ([2]; 1 nM) [%] | cell viability ([2]; 10 nM) [%] | cell viability ([2]; 100 nM) [%] | cell viability ([2]; 1000 nM) [%] | cell viability ([2]; 10000 nM) [%] | cell viability ([3]; 1 nM) [%] | cell viability ([3]; 10 nM) [%] | cell viability ([3]; 100 nM) [%] | cell viability ([3]; 1000 nM) [%] | cell viability ([3]; 10000 nM) [%] | cell viability ([4]; 1 nM) [%] | cell viability ([4]; 10 nM) [%] | cell viability ([4]; 100 nM) [%] | cell viability ([4]; 1000 nM) [%] | cell viability ([4]; 10000 nM) [%] | cell viability ([5]; 1 nM) [%] | cell viability ([5]; 10 nM) [%] | cell viability ([5]; 100 nM) [%] | cell viability ([5]; 1000 nM) [%] | cell viability ([5]; 10000 nM) [%] | relative viability EC50 [6] [µM] | relative viability EC50 [7] [µM] | relative viability EC50 [8] [µM] | relative viability EC50 [9] [µM] | drug sensitivity score [10] | drug sensitivity score [11] | drug sensitivity score [12] | drug sensitivity score [13] | drug sensitivity score [14] | relative viability EC50 [15] [µM] |
| --- | --- | --- | --- | --- | --- | --- | --- | --- | --- | --- | --- | --- | --- | --- | --- | --- | --- | --- | --- | --- | --- | --- | --- | --- | --- | --- | --- | --- | --- | --- | --- | --- | --- | --- | --- |
| COc1ccc(-c2oc3cc(OC)ccc3c2C(=O)c2ccc(C#N)cc2)cc1 | 99.7 | 96.4 | 95.3 | 93.6 | 87.2 | 96.4 | 98.8 | 101 | 106 | 102 | 107 | 96.8 | 109 | 92.8 | 74.4 | 98.2 | 103 | 95.2 | 101 | 95.4 | 104 | 101 | 101 | 96.4 | 99 | > 10 | > 10 | > 10 | > 10 | 0 | 0 | 2 | 0 | 0 | – |
| C[N+](C)(C)CCOP(=O)(O)OC[C@H](O)CO [choline-alfoscerate] | 106 | 101 | 100 | 100 | 102 | 99.9 | 98 | 91.2 | 96.3 | 102 | – | – | – | – | – | 105 | 102 | 101 | 99.4 | 98 | – | – | – | – | – | > 10 | > 10 | > 10 | – | 0 | 0 | – | 0 | – | – |
| CC(C(=O)O)c1ccc(N2Cc3ccccc3C2=O)cc1 (stereo not given) [indoprofen] | 91.9 | 97.8 | 99.5 | 96.5 | 93.8 | 84.3 | 104 | 97.1 | 92.9 | 94.1 | – | – | – | – | – | 95.8 | 97.6 | 103 | 100 | 102 | 95.9 | 99.6 | 97.8 | 99.4 | 105 | > 10 | > 10 | > 10 | > 10 | 0 | 0 | – | 0 | 0 | – |
| Cc1ccc(-c2csc(NC(=O)c3ccccc3)n2)c(C)c1 [INH1] | 97.2 | 104 | 96.1 | 91.5 | 85.8 | 96.9 | 102 | 101 | 107 | 98.3 | 102 | 104 | 98.8 | 104 | 58.7 | 94.7 | 101 | 95.3 | 96.3 | 96.6 | 102 | 96.8 | 98.4 | 97.5 | 91.1 | > 10 | > 10 | > 10 | > 10 | 0.4 | 0 | 1.8 | 0 | 0 | – |
| C[C@]12CC[C@@H](O)C[C@@H]1CC[C@@H]1[C@@H]2CC[C@]2(C)C(c3ccccc3)=CC[C@@H]12 [17-PA] | 95 | 87.9 | 87.5 | 104 | 82.6 | 101 | 106 | 94.2 | 94.7 | 99.8 | – | – | – | – | – | 96.1 | 101 | 96.4 | 103 | 102 | 98.1 | 89.2 | 99.6 | 93 | 107 | > 10 | > 10 | > 10 | > 10 | 0.3 | 0 | – | 0 | 0 | – |
| CN(c1ccc(NC(=O)Nc2ccccc2)cc1)S(=O)(=O)c1cnn(-c2ccc(F)cc2)c1 [BTT-3033] | 101 | 115 | 96.3 | 109 | 100 | 96.7 | 104 | 97.6 | 97.5 | 106 | – | – | – | – | – | 104 | 104 | 101 | 111 | 99.8 | – | – | – | – | – | > 10 | > 10 | > 10 | – | 0 | 0 | – | 0 | – | – |
| CC(C)OC(=O)C(C)(C)Oc1ccc(C(=O)c2ccc(Cl)cc2)cc1 [fenofibrate] | – | – | – | – | – | 103 | 111 | 102 | 36.9 | 94.5 | – | – | – | – | – | 100 | 100 | 98.4 | 95.7 | 92.6 | – | – | – | – | – | – | > 10 | > 10 | – | – | 0 | – | 0 | – | – |
| Cc1cc2sc(NC(=O)Cc3ccccc3)nc2cc1Cl [LH846] | 95.8 | 93.3 | 101 | 110 | 101 | 115 | 105 | 110 | 100 | 92.7 | 98.7 | 119 | 103 | 102 | 108 | – | – | – | – | – | 96.5 | 99.2 | 98 | 93.5 | 107 | > 10 | > 10 | – | > 10 | 0 | 0 | 0 | – | 0 | > 10 |
| CC(=O)Nc1ccc(OCC(O)CNC(C)C)cc1 (stereo not given) [practolol] | 107 | 93.5 | 81.2 | 91.7 | 92 | 108 | 114 | 111 | 100 | 99.7 | 94.1 | 105 | 97.3 | 109 | 87.3 | – | – | – | – | – | 110 | 102 | 106 | 106 | 93.7 | > 10 | > 10 | – | > 10 | 0.4 | 0 | 0 | – | 0 | > 10 |
| Cc1nc(C)c(-c2ccc(C3CCC(CC(=O)O)CC3)cc2)nc1C(N)=O (stereo not given) [AZD7687] | 116 | 99.6 | 97.7 | 102 | 86.2 | 104 | 104 | 98.2 | 96.7 | 105 | 105 | 104 | 109 | 102 | 92.1 | – | – | – | – | – | 103 | 100 | 97.3 | 99.9 | 98.5 | > 10 | > 10 | – | > 10 | 0.1 | 0 | 0 | – | 0 | > 10 |
| c1ccc(Cn2c(N3CCNCC3)nc3ccccc32)cc1 [lerisetron] | 100 | 98.6 | 104 | 98.9 | 96.5 | 97.6 | 95.8 | 100 | 98 | 96.3 | – | – | – | – | – | 99.2 | 95.4 | 105 | 98.1 | 99.9 | 103 | 100 | 99.4 | 98.7 | 96.6 | > 10 | > 10 | > 10 | > 10 | 0 | 0 | – | 0 | 0 | – |
| CCCCC1=NC2(CCCC2)C(=O)N1Cc1ccc(-c2ccccc2-c2nnn[nH]2)cc1 [irbesartan] | 109 | 97.1 | 106 | 104 | 109 | 100 | 97.1 | 100 | 101 | 108 | 107 | 104 | 102 | 99.9 | 106 | – | – | – | – | – | 100 | 101 | 99.7 | 93.6 | 94.6 | > 10 | > 10 | – | > 10 | 0 | 0 | 0 | – | 0 | > 10 |
| COc1ccc2[nH]c([S+]([O-])Cc3ncc(C)c(OC)c3C)nc2n1 (stereo not given) [tenatoprazole] | – | – | – | – | – | 109 | 114 | 103 | 96.6 | 105 | 101 | 113 | 104 | 106 | 97.7 | – | – | – | – | – | – | – | – | – | – | – | > 10 | – | – | – | 0 | 0 | – | – | > 10 |
| CNC(=O)c1cccc(NC(=O)N2CCC(Oc3ccccc3Cl)CC2)c1 | 94.3 | 100 | 93.2 | 102 | 82.7 | 80.3 | 99.6 | 86.4 | 99.4 | 101 | 99.1 | 101 | 92.4 | 79.3 | 50.5 | 94.9 | 103 | 97.3 | 99.6 | 91.4 | 102 | 99.5 | 97 | 89.9 | 91 | > 10 | > 10 | > 10 | > 10 | 0.3 | 0 | 4.8 | 0 | 0 | – |
| CC(=O)O[C@H]1CC[C@@]2(C)C(=CC[C@@H]3[C@@H]2CC[C@]2(C)C(c4cccnc4)=CC[C@@H]32)C1 [abiraterone-acetate] | 97.1 | 99.8 | 95.5 | 92.8 | 92.6 | 98.3 | 102 | 96.6 | 87.8 | 107 | – | – | – | – | – | 101 | 100 | 99.5 | 95.8 | 102 | – | – | – | – | – | > 10 | > 10 | > 10 | – | 0 | 0 | – | 0 | – | – |
| CC(=O)NC1=NN(C(C)=O)[C@](C)(c2ccccc2)S1 [K-858] | 106 | 102 | 91.3 | 102 | 71 | 108 | 93 | 96.3 | 101 | 91.5 | 98.8 | 101 | 98.7 | 106 | 39.2 | 97 | 96.5 | 97.6 | 98.3 | 63.9 | 103 | 103 | 99 | 96.2 | 42.2 | – | > 10 | – | 2.63 | 1.1 | 0 | 2.9 | 2 | 3.7 | 3.65 |
| C[C@]12CC[C@H](O)C[C@H]1CC[C@@H]1[C@@H]2CC[C@]2(C)[C@@](O)(c3ccoc3)CC[C@]12O [rostafuroxine] | 103 | 98 | 99.7 | 97.8 | 109 | 96.4 | 88.4 | 103 | 94.7 | 99.6 | – | – | – | – | – | 102 | 98.6 | 101 | 101 | 101 | 103 | 102 | 99.2 | 96.1 | 99.7 | > 10 | > 10 | > 10 | > 10 | 0 | 0 | – | 0 | 0 | – |

From the supplement of paper PMC13380429
